Test results from DBAASP.
Converted amounts (≈) assume the structure as drawn.

How the values were obtained:
Assay in all cases: ≥ marks a high value that may be exact or a test limit, other limits are often not marked, values filed in µg/mL are converted to µM
[1] = system: Trichosporon beigelii KCTC 7707
[2] = system: Saccharomyces cerevisiae KCTC 7296
[3] = system: Bacillus subtilis KCTC 1918
[4] = system: Proteus vulgaris KCTC 2433
[5] = system: Staphylococcus aureus KCTC 1621
[6] = system: Candida albicans TIMM 1768
[7] = system: Salmonella typhimurium KCTC 1926
[8] = system: Stenotrophomonas maltophilia U8908
[9] = system: Acinetobacter baumannii NM35
[10] = system: Acinetobacter baumannii NM8
[11] = system: Escherichia coli ATCC 25726
[12] = system: Staphylococcus epidermidis T37/8
[13] = system: Staphylococcus epidermidis RP62A/1
[14] = system: Staphylococcus epidermidis T6/19
[15] = system: Stenotrophomonas maltophilia B32/1
[16] = system: Enterococcus faecalis ATCC 29212
[17] = system: Staphylococcus epidermidis RP62A
[18] = system: Candida albicans ATCC 90028
[19] = system: Stenotrophomonas maltophilia B5/5
[20] = system: Pseudomonas aeruginosa ATCC 27853
[21] = system: Klebsiella pneumoniae ATCC 700603
[22] = system: Staphylococcus aureus 145/08
[23] = system: Staphylococcus aureus 127/08
[24] = system: Escherichia coli IFO 12734
[25] = system: Escherichia coli JM109
[26] = system: Staphylococcus aureus IFO 12732
[27] = system: Micrococcus luteus ATCC 9341
[28] = system: Escherichia coli W160-37
[29] = system: Bacillus subtilis IFO 3513
[30] = system: Staphylococcus aureus ATCC 8530
[31] = system: Saccharomyces cerevisiae PEP 4/3l
[32] = system: Pseudomonas aeruginosa KCTC 1637
[33] = system: Proteus vulgaris
[34] = system: Candida albicans KCTC 7121
[35] = system: Fusarium oxysporum KCTC 6084
[36] = system: Escherichia coli KCTC 1682
[37] = system: Aspergillus flavus KCTC 7375
[38] = system: Trichosporon beigelii KCTC 7251
[39] = system: Bacillus megaterium KCTC 1096
[40] = system: Staphylococcus aureus ATCC 29213
[41] = system: Serratia marcescens ATCC 8100
[42] = system: Escherichia coli ML-35
[43] = system: Salmonella enterica subsp. enterica serovar Typhimurium ATCC 14028
[44] = system: Escherichia coli ATCC 25922
[45] = system: Escherichia coli HB101
[46] = system: Candida albicans ATCC 37092
[47] = system: Staphylococcus aureus ATCC 25923

For CC[C@H](C)[C@H](NC(=O)CNC(=O)[C@H](CC(C)C)NC(=O)[C@H](CCCN=C(N)N)NC(=O)[C@H](CCCCN)NC(=O)[C@H](Cc1ccccc1)NC(=O)[C@@H](NC(=O)[C@H](CCCCN)NC(=O)[C@H](Cc1c[nH]c2ccccc12)NC(=O)[C@H](C)N)C(C)C)C(=O)NCC(=O)N[C@@H](C)C(=O)N[C@H](C(=O)N[C@@H](CC(C)C)C(=O)N[C@@H](Cc1c[nH]c2ccccc12)C(=O)N[C@H](C(=O)N[C@@H](CC(C)C)C(=O)N[C@H](C(=O)N[C@@H](Cc1c[nH]c2ccccc12)C(=O)NCC(=O)O)[C@@H](C)O)C(C)C)C(C)C [AWKVFKRLGIGAVLWVLTWG], the MIC [1] was no less than 50 µM, the MIC [2] was no less than 50 µM and the MIC [3] was 6.25 µM (≈ 14.4 µg/mL). It also gave an MIC [4] of 6.25 µM (≈ 14.4 µg/mL), an MIC [5] of 6.25 µM (≈ 14.4 µg/mL) and an MIC [6] of no less than 50 µM. It also gave an MIC [7] of 0.78 µM (≈ 1.79 µg/mL).
CC[C@H](C)[C@H](NC(=O)CN)C(=O)N[C@@H](Cc1ccccc1)C(=O)N1CCC[C@H]1C(=O)N[C@H](C(=O)N[C@@H](Cc1ccccc1)C(=O)N[C@@H](C)C(=O)N[C@@H](CCCCN)C(=O)N[C@@H](CC(C)C)C(=O)N[C@@H](CC(C)C)C(=O)NCC(=O)N[C@@H](CCCCN)C(=O)N[C@H](C(=O)N[C@H](C(=O)N[C@@H](CCCCN)C(=O)N[C@H](C(=O)N[C@@H](C)C(=O)N[C@@H](CO)C(=O)N[C@@H](CO)C(=O)N[C@@H](CC(C)C)C(=O)N[C@H](C(=O)N[C@@H](CO)C(=O)N[C@@H](CCCCN)C(=O)NCC(=O)N[C@@H](CCCN=C(N)N)C(=O)N[C@H](C(=O)N[C@@H](CCC(=O)O)C(=O)O)[C@@H](C)O)[C@@H](C)CC)C(C)C)[C@@H](C)CC)C(C)C)[C@@H](C)CC [GIFPIFAKLLGKVIKVASSLISKGRTE] showed an MIC [8] of 20 µM (≈ 57.5 µg/mL), an MIC [9] of 10 µM (≈ 28.7 µg/mL) and an MIC [10] of 20 µM (≈ 57.5 µg/mL). For the same molecule, the MIC [11] was no less than 80 µM, the MIC [12] was 10 µM (≈ 28.7 µg/mL) and the MIC [13] was 2.5 µM (≈ 7.18 µg/mL). It also gave an MIC [14] of 5 µM (≈ 14.4 µg/mL), an MIC [15] of 10 µM (≈ 28.7 µg/mL) and an MIC [16] of 20 µM (≈ 57.5 µg/mL). It also gave an MIC [17] of 5 µM (≈ 14.4 µg/mL), an MIC [18] of no less than 80 µM and an MIC [19] of no less than 40 µM. It also gave an MIC [20] greater than 80 µM, an MIC [21] greater than 80 µM and an MIC [22] of 10 µM (≈ 28.7 µg/mL). It also gave an MIC [23] of 5 µM (≈ 14.4 µg/mL).
CC[C@H](C)[C@H](N)C(=O)N[C@@H](CC(C)C)C(=O)N1CCC[C@H]1C(=O)N[C@@H](Cc1ccccc1)C(=O)N[C@@H](CCCCN)C(=O)N[C@@H](Cc1ccccc1)C(=O)N1CCC[C@H]1C(=O)N[C@@H](Cc1ccccc1)C(=O)N[C@@H](Cc1ccccc1)C(=O)N1CCC[C@H]1C(=O)N[C@@H](Cc1ccccc1)C(=O)N[C@@H](CCCN=C(N)N)C(=O)N[C@@H](CCCN=C(N)N)C(N)=O [ILPFKFPFFPFRR] showed an MIC [24] of no less than 58.4 µM, an MIC [25] of 8 µM (≈ 13.7 µg/mL) and an MIC [26] of 3.65 µM (≈ 6.25 µg/mL). For the same molecule, the MIC [27] was 0.4 µM (≈ 0.684 µg/mL), the MIC [28] was 16 µM (≈ 27.4 µg/mL) and the MIC [29] was 7.3 µM (≈ 12.5 µg/mL). For the same molecule, the MIC [30] was 1.65 µM (≈ 2.83 µg/mL) and the MIC [31] was 13.1 µM (≈ 22.3 µg/mL).
In the case of CC[C@H](C)[C@H](NC(=O)[C@H](CCCCN)NC(=O)[C@H](CCCCN)NC(=O)[C@H](Cc1ccccc1)NC(=O)[C@H](CC(C)C)NC(=O)[C@H](CCCCN)NC(=O)[C@H](Cc1c[nH]c2ccccc12)NC(=O)[C@@H](N)CCCCN)C(=O)N1CCC[C@H]1C(=O)N[C@@H](CCCCN)C(=O)N[C@@H](Cc1ccccc1)C(=O)N[C@@H](CC(C)C)C(=O)N[C@@H](Cc1cnc[nH]1)C(=O)N[C@@H](CC(C)C)C(=O)N[C@@H](C)C(N)=O [KWKLFKKIPKFLHLA], the MIC [32] is reported as 6.25 µM (≈ 11.9 µg/mL), the MIC [33] is reported as 3.12 µM (≈ 5.93 µg/mL) and the MIC [34] is reported as no less than 50 µM. The MIC [35] was no less than 100 µM, the MIC [36] was 8.84 µM (≈ 16.8 µg/mL) and the MIC [37] was no less than 100 µM. For the same molecule, the MIC [38] was no less than 50 µM, the MIC [3] was 0.78 µM (≈ 1.48 µg/mL) and the MIC [39] was 3.12 µM (≈ 5.93 µg/mL). It also gave an MIC [5] of 6.25 µM (≈ 11.9 µg/mL).
CC[C@H](C)[C@H](NC(=O)[C@H](CCCN=C(N)N)NC(=O)[C@@H](N)CCCN=C(N)N)C(=O)N[C@@H](CCCN=C(N)N)C(=O)N1CCC[C@H]1C(=O)N[C@@H](CCCN=C(N)N)C(=O)N1CCC[C@H]1C(=O)N1CCC[C@H]1C(=O)N[C@@H](CCCN=C(N)N)C(=O)N[C@@H](CC(C)C)C(=O)N1CCC[C@H]1C(=O)N[C@@H](CCCN=C(N)N)C(=O)N1CCC[C@H]1C(=O)N[C@@H](CCCN=C(N)N)C(=O)N1CCC[C@H]1C(=O)O [RRIRPRPPRLPRPRP] showed an MIC [40] greater than 500 µM, an MIC [41] of no less than 128 µM and an MIC [42] of no less than 128 µM. It also gave an MIC [43] of 128 µM (≈ 246 µg/mL), an MIC [44] of 45.3 µM (≈ 86.9 µg/mL) and an MIC [45] of 16 µM (≈ 30.7 µg/mL). For the same molecule, the MIC [46] was 28.8 µM (≈ 55.3 µg/mL) and the MIC [47] was greater than 128 µM.
